Experiment [1] has as its target T1, RORγt (Homo sapiens, UniProt P51449).
T1 sequence (P51449 1-497 isoform P51449-2): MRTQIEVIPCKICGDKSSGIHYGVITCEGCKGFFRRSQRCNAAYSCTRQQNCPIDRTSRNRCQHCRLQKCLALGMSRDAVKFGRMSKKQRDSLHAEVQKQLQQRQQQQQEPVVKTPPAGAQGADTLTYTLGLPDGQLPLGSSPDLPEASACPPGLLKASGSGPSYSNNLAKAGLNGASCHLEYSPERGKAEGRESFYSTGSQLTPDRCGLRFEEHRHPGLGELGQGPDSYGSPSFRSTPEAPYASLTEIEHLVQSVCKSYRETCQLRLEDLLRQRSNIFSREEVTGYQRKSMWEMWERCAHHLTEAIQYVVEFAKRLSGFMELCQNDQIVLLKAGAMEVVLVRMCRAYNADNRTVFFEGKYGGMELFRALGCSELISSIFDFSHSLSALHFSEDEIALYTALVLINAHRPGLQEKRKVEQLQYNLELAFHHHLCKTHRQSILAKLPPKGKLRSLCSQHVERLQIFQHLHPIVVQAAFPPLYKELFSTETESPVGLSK
In words: RORγt binding test (TR-FRET, fluorescent-labeled cholesterol). The conditions noted are these: read-out: binding inhibitory rate (%) of fluorescent-labeled cholesterol to RORγt at test compound 1 μM. Summed up:
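His-tagged RORγt and BODIPY-cholesterol were incubated with compound for 20 min at room temperature in Tris-HCl pH 7.5, 100 mM NaCl, 1 mM DTT and 0.1% BSA. Terbium anti-His antibody was then added for a further 20 min.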
On the technique in general: TR-FRET usually uses a lanthanide donor and a delayed reading to cut background.

Experiment [2] has as its target T1, RORγt. Nature of the experiment: Cofactor recruitment test (Alpha Screen, biotinylated SRC-1 peptide). It counts as biochemical. The conditions noted are these: read-out: signal value inhibitory rate (%) at test compound 1 μM. The method, then:
Cofactor Recruitment Test
Cofactor recruitment test was performed by Alpha Screen (Histidine Detection Kit, PerkinElmer) method. First, a test compound was diluted with an assay buffer (50 mM Tris-HCl (pH 7.5), 50 mM KCl, 1 mM DTT, 0.1% BSA) and added to a 384 well plate by 5 μL. […] The mixture was stood in a dark place for 1 hr, and the signal value was measured by Envision (PerkinElmer).

The target in experiment [3] is T1, RORγt. Nature of the experiment: Jurkat reporter test (human IL-17 ROR response element luciferase reporter). The conditions noted are these: Jurkat, read-out: luminescence level inhibitory rate (%) at test compound 3 μM. It is filed as cell-based. The gist of the method: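 Luminescence (Bright-Glo, 10 min, RT) was measured after overnight compound treatment of electroporated Jurkat cells (1350 V, 10 ms interval, 3 pulses). The reaction medium was RPMI with 10% lipid-reduced FCS, 10 mM HEPES (pH 7.5) and 5 μM lovastatin.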
(In general: In a reporter assay the amount or activity of a reporter protein is the signal.)

Turning to `COc1ccc([C@@H](NC(=O)N2CC[C@@H](O)C2)C(=O)Nc2ccc([Si](C)(C)C)c(F)c2)cc1` [Example 71, (3R)—N-((1R)-2-((3-fluoro-4-(trimethylsilyl)phenyl)amino)-1-(4-methoxyphenyl)-2-oxoethyl)-3-hydroxypyrrolidine-1-carboxamide], the inhibition at 1 µM came to 101% in experiment [1] and 89.9% in experiment [2]. Besides, the inhibition at 3 µM in experiment [3] was 99%.
With `COCc1ccc([C@@H](NC(=O)CCO)C(=O)Nc2cc(F)c([Si](C)(C)C)c(F)c2)cc1` [Example 72, N-((1R)-2-((3,5-difluoro-4-(trimethylsilyl)phenyl)amino)-1-(4-(methoxymethyl)phenyl)-2-oxoethyl)-3-hydroxypropanamide], the inhibition at 1 µM came to 102% in experiment [1] and 96.7% in experiment [2]. Also, in experiment [3], the inhibition at 3 µM worked out at 99.2%.
As for `COCc1ccc([C@@H](NC(=O)CCC#N)C(=O)Nc2cc(F)c([Si](C)(C)C)c(F)c2)cc1` [Example 73, 3-cyano-N-((1R)-2-((3,5-difluoro-4-(trimethylsilyl)phenyl)amino)-1-(4-(methoxymethyl)phenyl)-2-oxoethyl)propanamide], the inhibition at 1 µM in experiment [1] was found to be 103%; in experiment [2] it was 96.7%. Further, the inhibition at 3 µM in experiment [3] amounted to 97.9%.
In the case of `COCc1ccc([C@@H](NC(=O)Cc2nnc(C)o2)C(=O)Nc2cc(F)c([Si](C)(C)C)c(F)c2)cc1` [Example 74, (2R)—N-(3,5-difluoro-4-(trimethylsilyl)phenyl)-2-(4-(methoxymethyl)phenyl)-2-(((5-methyl-1,3,4-oxadiazol-2-yl)acetyl)amino)acetamide], the inhibition at 1 µM amounted to 101% in experiment [1] and 97.6% in experiment [2]. For the same molecule, the inhibition at 3 µM in experiment [3] came out at 99.4%.
The corresponding values for `COCc1ccc([C@@H](NC(=O)Cc2cc(O)no2)C(=O)Nc2ccc([Si](C)(C)C)c(F)c2)cc1` [Example 75, (2R)—N-(3-fluoro-4-(trimethylsilyl)phenyl)-2-(((3-hydroxy-1,2-oxazol-5-yl)acetyl)amino)-2-(4-(methoxymethyl)phenyl)acetamide] are 102%, 95.8% and 99.7%.
Turning to `COCc1ccc([C@@H](NC(=O)Cc2cc(O)no2)C(=O)Nc2cc(F)c([Si](C)(C)C)c(F)c2)cc1` [Example 76, (2R)—N-(3,5-difluoro-4-(trimethylsilyl)phenyl)-2-(((3-hydroxy-1,2-oxazol-5-yl)acetyl)amino)-2-(4-(methoxymethyl)phenyl)acetamide], the inhibition at 1 µM in experiment [1] worked out at 103%; in experiment [2], 98.5%. Besides, in experiment [3], the inhibition at 3 µM was 99.3%.
For `COCc1ccc([C@H](C(=O)Nc2cc(F)c([Si](C)(C)C)c(F)c2)N(C)C(=O)c2cc(O)no2)cc1` [Example 77, N-((1R)-2-((3,5-difluoro-4-(trimethylsilyl)phenyl)amino)-1-(4-(methoxymethyl)phenyl)-2-oxoethyl)-3-hydroxy-N-methyl-1,2-oxazole-5-carboxamide], the inhibition at 1 µM in experiment [1] worked out at 103%; in experiment [2] it was 97.3%. Besides, the inhibition at 3 µM in experiment [3] was found to be 99.7%.
Consider `COCc1ccc([C@@H](NC(=O)Cn2ccc(=O)cc2)C(=O)Nc2ccc([Si](C)(C)C)c(F)c2)cc1` [Example 78, (2R)—N-(3-fluoro-4-(trimethylsilyl)phenyl)-2-(4-(methoxymethyl)phenyl)-2-(((4-oxopyridin-1(4H)-yl)acetyl)amino)acetamide], for which the inhibition at 1 µM in experiment [1] is 102%; in experiment [2], 93.2%. The inhibition at 3 µM in experiment [3] was found to be 96%.
`CCC(=O)N[C@@H](C(=O)Nc1ccc([Si](C)(C)C)c(F)c1)c1ccc(COC)cc1` [Example 79, N-((1R)-2-((3-fluoro-4-(trimethylsilyl)phenyl)amino)-1-(4-(methoxymethyl)phenyl)-2-oxoethyl)propanamide]: the inhibition at 1 µM is 103% in experiment [1] and 93% in experiment [2]. For the same molecule, the inhibition at 3 µM in experiment [3] came out at 98.4%.
On to `COCc1ccc([C@@H](NC(=O)CCS(C)(=O)=O)C(=O)Nc2ccc([Si](C)(C)C)c(F)c2)cc1` [Example 80, N-((1R)-2-((3-fluoro-4-(trimethylsilyl)phenyl)amino)-1-(4-(methoxymethyl)phenyl)-2-oxoethyl)-3-(methylsulfonyl)propanamide], for which the inhibition at 1 µM came out at 102% in experiment [1] and 93.8% in experiment [2]. In experiment [3], the inhibition at 3 µM was 100%.
In the case of `COCc1ccc([C@@H](NC(=O)CS(C)(=O)=O)C(=O)Nc2ccc([Si](C)(C)C)c(F)c2)cc1` [Example 81, (2R)—N-(3-fluoro-4-(trimethylsilyl)phenyl)-2-(4-(methoxymethyl)phenyl)-2-(((methylsulfonyl)acetyl)amino)acetamide], the inhibition at 1 µM amounted to 103% in experiment [1] and 94.9% in experiment [2]. The inhibition at 3 µM in experiment [3] is 98.3%.
`COCc1ccc([C@@H](NC(=O)c2cc(O)no2)C(=O)Nc2cc(F)c([Si](C)(C)C)c(F)c2)cc1` [Example 82, N-((1R)-2-((3,5-difluoro-4-(trimethylsilyl)phenyl)amino)-1-(4-(methoxymethyl)phenyl)-2-oxoethyl)-3-hydroxy-1,2-oxazole-5-carboxamide]: the inhibition at 1 µM in experiment [1] came to 103%; in experiment [2] it was 96.8%. Further, the inhibition at 3 µM in experiment [3] turned out to be 97%.
As for `COc1ccc([C@@H](NC(=O)c2cc(O)no2)C(=O)Nc2ccc([Si](C)(C)C)c(F)c2)cc1` [Example 83, N-((1R)-2-((3-fluoro-4-(trimethylsilyl)phenyl)amino)-1-(4-methoxyphenyl)-2-oxoethyl)-3-hydroxy-1,2-oxazole-5-carboxamide], the inhibition at 1 µM was determined as 100% in experiment [1] and 86.5% in experiment [2]. Moreover, the inhibition at 3 µM in experiment [3] stood at 63.2%.
For `COCc1ccc([C@@H](NC(=O)C2CC2(F)F)C(=O)Nc2ccc([Si](C)(C)C)c(F)c2)cc1` (stereo partly drawn) [Example 84, 2,2-difluoro-N-((1R)-2-((3-fluoro-4-(trimethylsilyl)phenyl)amino)-1-(4-(methoxymethyl)phenyl)-2-oxoethyl)cyclopropanecarboxamide], the inhibition at 1 µM worked out at 101% in experiment [1] and 94.4% in experiment [2]. For the same molecule, the inhibition at 3 µM in experiment [3] came to 100%.
In the case of `COCc1ccc([C@@H](NC(=O)CO)C(=O)Nc2ccc([Si](C)(C)C)c(F)c2)cc1` [Example 85, (2R)—N-(3-fluoro-4-(trimethylsilyl)phenyl)-2-(glycoloylamino)-2-(4-(methoxymethyl)phenyl)acetamide], the inhibition at 1 µM was 103% in experiment [1] and 90.1% in experiment [2]. Moreover, the inhibition at 3 µM in experiment [3] came to 99%.
Take `COCc1ccc([C@@H](NC(=O)CNC(C)=O)C(=O)Nc2ccc([Si](C)(C)C)c(F)c2)cc1` [Example 86, N^2-acetyl-N-((1R)-2-((3-fluoro-4-(trimethylsilyl)phenyl)amino)-1-(4-(methoxymethyl)phenyl)-2-oxoethyl)glycinamide]: the inhibition at 1 µM in experiment [1] came out at 102%; in experiment [2], 95.2%. Moreover, the inhibition at 3 µM in experiment [3] turned out to be 99.1%.
With `COCc1ccc([C@@H](NC(=O)C2CCN(C(C)=O)CC2)C(=O)Nc2ccc([Si](C)(C)C)c(F)c2)cc1` [Example 87, 1-acetyl-N-((1R)-2-((3-fluoro-4-(trimethylsilyl)phenyl)amino)-1-(4-(methoxymethyl)phenyl)-2-oxoethyl)piperidine-4-carboxamide], the inhibition at 1 µM in experiment [1] amounted to 102%; in experiment [2] it was 83.9%. Besides, the inhibition at 3 µM in experiment [3] amounted to 98.2%.
